≈ marks a conversion by molar mass, not a printed value.
Experiments:
TNF-α = experiment: LPS-induced TNF-α production in hPBMCs (primary screening, ELISA); type: cell-based, human; details: LPS-stimulated hPBMCs
Procedure: (§1) TNF-α production by lipopolysaccharides (LPS) in hPBMCs was measured according to the method described by Jansky, L. et al (Physiol. Res. 52: 593-598, (2003)). Blood was collected from healthy donors into Ethylene diamine tetra acetic acid Potassium salt (Potassium EDTA) vacutainer tubes (BD vacutainer). The PBMCs were isolated using gradient centrifugation in Histopaque-1077 solution (Sigma). Isolated PBMCs were suspended in Roswell Park Memorial Institute (RPMI) 1640 culture medium (Gibco BRL, Pasley, UK) containing 10% fetal bovine serum (FBS) (Hyclone, Utah, USA), 100 U/ml penicillin (Sigma Chemical Co. St Louis, Mo.) and 100 μg/ml streptomycin (Sigma Chemical Co. St Louis, Mo.). The cell concentration was adjusted to 1×10^6 cells/ml. The viability as determined by trypan blue dye exclusion was uniformly ≧98%. The cell suspension (100 μl) was added to the wells of a 96-well culture plate. Following cell plating, 79 μl of the culture medium and 1 μl of eight different concentrations of the test compounds (final concentration 0.03, 0.1, 0.3, 1, 3, 10, 30, 100 μg/ml) dissolved in dimethylsulfoxide, (DMSO) Sigma, Mo., USA) were added to the cells. The final concentration of DMSO was adjusted to 0.5%. The vehicle (0.5% DMSO) was used as control. Rolipram (100, 300 μM) was used as a standard. The plates were incubated for 30 min at 37° C. in an atmosphere of 5% carbon dioxide (CO2). Finally, 20 μl (10 μg/ml) per well of LPS, (Escherchia coli 0127:B8, Sigma Chemical Co., St. Louis, Mo.) was added, for a final concentration of 1 μg/ml. The plates were incubated at 37° C. for 5 h in an atmosphere of 5% carbon dioxide (CO2). To assess the cytotoxic effect of the plant extracts, the cellular viability test was performed using 3-(4,5-dimethylthiazol-2-yl)-5-(3-carboxymethoxyphenyl)-2-(4-sulfonyl)-2H-tetrazolium) (MTS) reagent after 5 h of incubation. Supernatants were harvested and assayed for TNF-α by ELISA as described by the manufacturer (OptiElA ELISA sets, BD Biosciences, Pharmingen). […] Percent cytotoxicity of the test compound compared to control is evaluated.

[1] = system: human peripheral blood mononuclear cells; experiment: Cellular viability test (MTS) in hPBMCs; type: cell-based
Procedure: as §1, with “standard.” for “standard. The plates were incubated for 30 min at 37° C. in an atmosphere of 5% carbon dioxide (CO2). Finally, 20 μl (10 μg/ml) per well of LPS, (Escherchia coli 0127:B8, Sigma Chemical Co., St. Louis, Mo.) was added, for a final concentration of 1 μg/ml. The plates were incubated at 37° C. for 5 h in an atmosphere of 5% carbon dioxide (CO2). To assess the cytotoxic effect of the plant extracts, the cellular viability test was performed using 3-(4,5-dimethylthiazol-2-yl)-5-(3-carboxymethoxyphenyl)-2-(4-sulfonyl)-2H-tetrazolium) (MTS) reagent after 5 h of incubation. Supernatants were harvested and assayed for TNF-α by ELISA as described by the manufacturer (OptiElA ELISA sets, BD Biosciences, Pharmingen).”

interleukin-1β (IL-1β) = experiment: IL-1β released by LPS-stimulated hPBMCs (ELISA); type: cell-based, human
Procedure: TNF-α production by lipopolysaccharides (LPS) in hPBMCs was measured according to the method described by Jansky, L. et al (Physiol. Res. 52: 593-598, (2003)). Blood was collected from healthy donors into Ethylene diamine tetra acetic acid Potassium salt (Potassium EDTA) vacutainer tubes (BD vacutainer). The PBMCs were isolated using gradient centrifugation in Histopaque-1077 solution (Sigma). Isolated PBMCs were suspended in Roswell Park Memorial Institute (RPMI) 1640 culture medium (Gibco BRL, Pasley, UK) containing 10% fetal bovine serum (FBS) (Hyclone, Utah, USA), 100 U/ml penicillin (Sigma Chemical Co. St Louis, Mo.) and 100 μg/ml streptomycin (Sigma Chemical Co. St Louis, Mo.). The cell concentration was adjusted to 1×10^6 cells/ml. The viability as determined by trypan blue dye exclusion was uniformly ≧98%. The cell suspension (100 μl) was added to the wells of a 96-well culture plate. […] Percent cytotoxicity of the test compound compared to control is evaluated.
The effect of the plant extract on the proinflammatory cytokines: interleukin-1β (IL-1β), interleukin-6 (IL-6) and interleukin-8 (IL-8) was measured using the supernatants generated in the primary screening assay. […]

Row | Compound | inhibition at 100 µM (TNF-α; Homo sapiens, 100 μM, read-out: % Inhibition of TNF-α release) | inhibition at 300 µM (TNF-α; Homo sapiens, 300 μM, read-out: % Inhibition of TNF-α release) | % Toxicity 5 h ([1]; 100 μM) | % Toxicity 5 h ([1]; 300 μM) | IC50, TNF-α inhibition (TNF-α) | IC50 against IL-1 (interleukin-1β (IL-1β))
1 | COc1ccc(C2CNC(=O)C2)cc1OC1CCCC1 (stereo not drawn) [Rolipram] | 100% | 100% | 2% | 10% |  | 
2 | CC1=CCCC2C1(C)CCC(C)C2(C)CCC1=CC(=O)OC1O (stereo not drawn) [Compound 1, 16-hydroxycleroda-3,13(14)-dien-15,16-olide] |  |  |  |  | 5.9 µg/mL (≈ 18.5 µM) | 0.4 µg/mL (≈ 1.26 µM)

Reference: patent US7862837B2, “Herbal composition” (Piramal Life Sciences Limited, priority 2006, dated 2011)
